For 13 compounds, IC50 results are on record in patent US11685746B2, “Heteroaryl compounds for treating Huntington's disease” (PTC THERAPEUTICS, INC., priority 2018, dated 2023).

The assay has as its system Endogenous Huntingtin Protein. In words: Endogenous Huntingtin Protein Assay (MSD plates, MW1 or MAB2166 capture antibody). As to conditions: Table 1. The assay is classed as cell-based. The method, then:
Endogenous Huntingtin Protein Assay
Meso Scale Discovery (MSD) 96-well or 384-well plates were coated overnight at 4° C. with MW1 (expanded polyglutamine) or MAB2166 monoclonal antibody (for capture) at a concentration of 1 μg/mL in PBS (30 μL per well). Plates were then washed three times with 300 μL wash buffer (0.05% Tween-20 in PBS) and blocked (100 μL blocking buffer; 5% BSA in PBS) for 4-5 hours at room temperature with rotational shaking and then washed three times with wash buffer.
Samples (25 μL) were transferred to the antibody-coated MSD plate and incubated overnight at 4° C. After removal of the lysates, the plate was washed three times with wash buffer, and 25 μL of #5656S (Cell signaling; rabbit monoclonal) secondary antibody (diluted to 0.25 μg/mL in 0.05% Tween-20 in blocking buffer) was added to each well and incubated with shaking for 1 Hour at room temperature. Following incubation with the secondary antibody, the wells were rinsed with wash buffer after which 25 μL of goat anti-rabbit SULFO TAG secondary detection antibody (required aspect of the MSD system) (diluted to 0.25 μg/mL in 0.05% Tween-20 in blocking buffer) was added to each well and incubated with shaking for 1 hour at room temperature. After rinsing three times with wash buffer, 150 μL of read buffer T with surfactant (MSD) were added to each empty well, and the plate was imaged on a SI 6000 imager (MSD) according to manufacturers' instructions provided for 96- or 384-well plates.
As to `CN(c1nc2sc(-c3ccc(-c4cn[nH]c4)cc3O)nc2s1)C1CC(C)(C)NC(C)(C)C1` [Compound 1, 2-{5-[methyl(2,2,6,6-tetramethylpiperidin-4-yl)amino][1,3]thiazolo[5,4-d][1,3]thiazol-2-yl}-5-(1H-pyrazol-4-yl)phenol], the IC50 (as a rule, the midpoint of a concentration-inhibition curve) was at most 100 nM.
The same measure for `Cc1cc(-c2cn3cc(C4CCNCC4)nc3s2)cc2cn(C)nc12` [Compound 2, 2,7-dimethyl-5-[6-(piperidin-4-yl)imidazo[2,1-b][1,3]thiazol-2-yl]-2H-indazole]: at most 100 nM; for `CN(c1nc2sc(-c3ccc(-c4cn[nH]c4)c(F)c3F)nc2s1)C1CC(C)(C)NC(C)(C)C1` [Compound 3, 5-[2,3-difluoro-4-(1H-pyrazol-4-yl)phenyl]-N-methyl-N-(2,2,6,6-tetramethylpiperidin-4-yl)[1,3]thiazolo[5,4-d][1,3]thiazol-2-amine]: 100 to 500 nM.
For `CN(c1nc2sc(-c3cc(F)c(-c4cn[nH]c4)cc3F)nc2s1)C1CC(C)(C)NC(C)(C)C1` [Compound 4, 5-[2,5-difluoro-4-(1H-pyrazol-4-yl)phenyl]-N-methyl-N-(2,2,6,6-tetramethylpiperidin-4-yl)[1,3]thiazolo[5,4-d][1,3]thiazol-2-amine] the value was at most 100 nM; for `CN(c1nc2sc(-c3cc(F)c(-c4cn[nH]c4)c(F)c3)nc2s1)C1CC(C)(C)NC(C)(C)C1` [Compound 5, 5-[3,5-difluoro-4-(1H-pyrazol-4-yl)phenyl]-N-methyl-N-(2,2,6,6-tetramethylpiperidin-4-yl)[1,3]thiazolo[5,4-d][1,3]thiazol-2-amine], at most 100 nM.
For `Oc1cc(-c2cn[nH]c2)ccc1-c1nc2sc(N3CCNCC3)nc2s1` [Compound 6, 2-[5-(piperazin-1-yl)[1,3]thiazolo[5,4-d][1,3]thiazol-2-yl]-5-(1H-pyrazol-4-yl)phenol] the value was 1000 to 3000 nM; for `Cn1cc2cc(-c3nc4sc(N5CCNCC5)nc4s3)cc(C#N)c2n1` [Compound 7, 2-methyl-5-[5-(piperazin-1-yl)[1,3]thiazolo[5,4-d][1,3]thiazol-2-yl]-2H-indazole-7-carbonitrile], 500 to 1000 nM.
`Cc1cn2nc(-c3cn4cc(C5CCNCC5)nc4s3)cc(C)c2n1` [Compound 8, 2,8-dimethyl-6-[6-(piperidin-4-yl)imidazo[2,1-b][1,3]thiazol-2-yl]imidazo[1,2-b]pyridazine] registered an IC50 of at most 100 nM.
The same measure for `CN(c1nn2c(Cl)c(-c3ccc(-c4cn[nH]c4)cc3O)nc2s1)C1CC(C)(C)NC(C)(C)C1` [Compound 9, 2-{5-chloro-2-[methyl(2,2,6,6-tetramethylpiperidin-4-yl)amino]imidazo[2,1-b][1,3,4]thiadiazol-6-yl}-5-(1H-pyrazol-4-yl)phenol]: 100 to 500 nM; for `Cc1cn2cc(-c3nc4sc(C5CCNCC5)nc4s3)cc(C#N)c2n1` [Compound 10, 2-methyl-6-[5-(piperidin-4-yl)[1,3]thiazolo[5,4-d][1,3]thiazol-2-yl]imidazo[1,2-a]pyridine-8-carbonitrile]: 100 to 500 nM.
With `Cn1cc2cc(-c3nc4sc(C5CCNCC5)nc4s3)cc(F)c2n1` [Compound 11, 7-fluoro-2-methyl-5-[5-(piperidin-4-yl)[1,3]thiazolo[5,4-d][1,3]thiazol-2-yl]-2H-indazole], the IC50 was at most 100 nM.
For `Cc1cn2nc(-c3nc4sc(C5CCNCC5)nc4s3)cc(C)c2n1` [Compound 12, 2,8-dimethyl-6-[5-(piperidin-4-yl)[1,3]thiazolo[5,4-d][1,3]thiazol-2-yl]imidazo[1,2-b]pyridazine] the value was 100 to 500 nM.
`Oc1cc(-c2cn[nH]c2)ccc1-c1nc2sc(NC3CC4CCC(C3)N4)nc2s1` (stereo not drawn) [Compound 13, 2-{5-[(3-exo)-8-azabicyclo[3.2.1]oct-3-ylamino][1,3]thiazolo[5,4-d][1,3]thiazol-2-yl}-5-(1H-pyrazol-4-yl)phenol] yielded an IC50 of at most 100 nM.
